SMILES strings stand for the structures.

The subject of one assay is HIV-13B in MT4 cells. As to the kind of experiment: Antiviral activity: inhibition of the cytopathic effect of HIV in MT4 cells. Format: cell-based, HIV-1. To be noted: Human immunodeficiency virus 1, MT4; read-out: IC50.
For `CC(C)c1nc(CN(C)C(=O)N[C@H](C(=O)N[C@@H](Cc2ccccc2)C[C@H](O)[C@H](Cc2ccccc2)NC(=O)OCc2cncs2)C(C)C)cs1` [Example 1, (2S,3S,5S)-5-(N-(N-((N-Methyl-N-((2-isopropyl-4-thiazolyl)methyl)amino)carbonyl)valinyl)amino)-2-(N-((5-thiazolyl)methoxycarbonyl)amino)-1,6-diphenyl-3-hydroxyhexane], the IC50 fell in the range of 25 to 40 nM.
Still for that read-out and setting: as for `CCN(Cc1csc(C(C)C)n1)C(=O)N[C@H](C(=O)N[C@@H](Cc1ccccc1)C[C@H](O)[C@H](Cc1ccccc1)NC(=O)OCc1cncs1)C(C)C` [Example 4, (2S,3S,5S)-5-(N-(N-((N-Ethyl-N-((2-isopropyl-4-thiazolyl)methyl)amino)carbonyl)valinyl)amino)-2-(N-((5-thiazolyl)methoxycarbonyl)amino)-1,6-diphenyl-3-hydroxyhexane], the figure is 170 to 320 nM; as for `CC(C)c1nc(COC(=O)N[C@H](C(=O)N[C@@H](Cc2ccccc2)C[C@H](O)[C@H](Cc2ccccc2)NC(=O)OCc2cncs2)C(C)C)cs1` [Example 5, (2S,3S,5S)-5-(N-(N-((2-Isopropyl-4-thiazolyl)methoxycarbonyl)valinyl)amino)-2-(N-((5-thiazolyl)methoxycarbonyl)amino)-1,6-diphenyl-3-hydroxyhexane], 3 to 9 nM; as for `CC(C)c1nc(COC(=O)N[C@H](C(=O)N[C@@H](Cc2ccccc2)[C@@H](O)C[C@H](Cc2ccccc2)NC(=O)OCc2cncs2)C(C)C)cs1` [Example 6, (2S,3S,5S)-2-(N-(N-((2-Isopropyl-4-thiazolyl)methoxycarbonyl)valinyl)amino)-5-(N-((5-thiazolyl)methoxycarbonyl)amino)-1,6-diphenyl-3-hydroxyhexane], 6 to 14 nM.
As to `CC(C)c1nc(COC(=O)N[C@@H](C)C(=O)N[C@@H](Cc2ccccc2)C[C@H](O)[C@H](Cc2ccccc2)NC(=O)OCc2cncs2)cs1` [Example 7, (2S,3S,5S)-5-(N-(N-((2-Isopropyl-4-thiazolyl)methoxycarbonyl)alaninyl)amino)-2-(N-((5-thiazolyl)methoxycarbonyl)amino)-1,6-diphenyl-3-hydroxyhexane], the IC50 was 76 to 131 nM.
On the same count and under the same terms, as for `CC(C)[C@H](NC(=O)OCc1csc(N(C)C)n1)C(=O)N[C@@H](Cc1ccccc1)[C@@H](O)C[C@H](Cc1ccccc1)NC(=O)OCc1cncs1` [Example 10, (2S,3S,5S)-2-(N-(N-((2-(N,N-Dimethylamino)-4-thiazolyl)methoxycarbonyl)valinyl)amino)-5-(N-((5-thiazolyl)methoxycarbonyl)amino)-1,6-diphenyl-3-hydroxyhexane], the figure is 54 to 71 nM; as for `CC(C)[C@H](NC(=O)OCc1csc(N2CCOCC2)n1)C(=O)N[C@@H](Cc1ccccc1)C[C@H](O)[C@H](Cc1ccccc1)NC(=O)OCc1cncs1` [Example 11, (2S,3S,5S)-5-(N-(N-((2-(4-Morpholinyl)-4-thiazolyl)methoxycarbonyl)valinyl)amino)-2-(N-((5-thiazolyl)methoxycarbonyl)amino)-1,6-diphenyl-3-hydroxyhexane], 17 to 132 nM.
On the same count and under the same terms, as for `CC(C)[C@H](NC(=O)OCc1csc(N2CCOCC2)n1)C(=O)N[C@@H](Cc1ccccc1)[C@@H](O)C[C@H](Cc1ccccc1)NC(=O)OCc1cncs1` [Example 12, (2S,3S,5S)-2-(N-(N-((2-(4-Morpholinyl)-4-thiazolyl)-methoxycarbonyl)valinyl)amino)-5-(N-((5-thiazolyl)-methoxycarbonyl)amino)-1,6-diphenyl-3-hydroxyhexane], the figure is 53 to 106 nM.
Still for that read-out and setting: with `CC(C)c1nc(CN(C(=O)N[C@@H](C)C(=O)N[C@@H](Cc2ccccc2)C[C@H](O)[C@H](Cc2ccccc2)NC(=O)OCc2cncs2)C2CC2)cs1` [Example 15, (2S,3S,5S)-5-(N-(N-((N-Cyclopropyl-N-((2-isopropyl-4-thiazolyl)methyl)amino)carbonyl)alaninyl)amino)-2-(N-((5-thiazolyl)methoxycarbonyl)amino)-1,6-diphenyl-3-hydroxyhexane] the figure was 430 to 670 nM.
Regarding `CC(C)c1nc(CN(C(=O)N[C@H](C(=O)N[C@@H](Cc2ccccc2)C[C@H](O)[C@H](Cc2ccccc2)NC(=O)OCc2cncs2)C(C)C)C2CC2)cs1` [Example 17, (2S,3S,5S)-5-(N-(N-((N-Cyclopropyl-N-((2-isopropyl-4-thiazolyl)methyl)amino)carbonyl)valinyl)amino)-2-(N-((5-thiazolyl)methoxycarbonyl)amino)-1,6-diphenyl-3-hydroxyhexane], the IC50 was in the range of 230 to 310 nM.
On the same count and under the same terms, with `CC(C)c1nc(CN(C)C(=O)N[C@H](C(=O)N[C@@H](Cc2ccccc2)C[C@H](O)[C@H](Cc2ccccc2)NC(=O)OCc2cncs2)C(C)C)co1` [Example 18, (2S,3S,5S)-5-(N-(N-((N-Methyl-N-((2-isopropyl-4-oxazolyl)methyl)amino)carbonyl)valinyl)amino)-2-(N-((5-thiazolyl)methoxycarbonyl)amino)-1,6-diphenyl-3-hydroxyhexane] the figure was 39 to 46 nM; with `CC(C)c1nc(CN(C)C(=O)N[C@H](C(=O)N[C@@H](Cc2ccccc2)C[C@H](O)[C@H](Cc2ccccc2)NC(=O)OCc2ccno2)C(C)C)cs1` [Example 26, (2S,3S,5S)-5-(N-(N-((N-Methyl-N-((2-isopropyl-4-thiazolyl)methyl)amino)carbonyl)valinyl)amino)-2-(N-((5-isoxazolyl)methoxycarbonyl)amino)-1,6-diphenyl-3-hydroxyhexane], 7 to 11 nM.
As to `CC(C)c1nc(CN(C)C(=O)N[C@H](C(=O)N[C@@H](Cc2ccccc2)C[C@H](O)[C@H](Cc2ccccc2)NC(=O)OCc2ccno2)C(C)C)co1` [Example 27, (2S,3S,5S)-5-(N-(N-((N-Methyl-N-((2-isopropyl-4-oxazolyl)methyl)amino)carbonyl)valinyl)amino)-2-(N-((5-isoxazolyl)methoxycarbonyl)amino)-1,6-diphenyl-3-hydroxyhexane], the IC50 is 11 to 12 nM.
On to `Cc1ncc(COC(=O)N[C@@H](Cc2ccccc2)[C@@H](O)C[C@H](Cc2ccccc2)NC(=O)[C@@H](NC(=O)N(C)Cc2csc(C(C)C)n2)C(C)C)s1` [Example 28, (2S,3S,5S)-5-(N-(N-((N-Methyl-N-((2-isopropyl-4-thiazolyl)methyl)amino)carbonyl)valinyl)amino)-2-(N-((2-methyl-5-thiazolyl)methoxycarbonyl)amino)-1,6-diphenyl-3-hydroxyhexane], for which the IC50 lay in the range of 110 to 120 nM.
In the case of `Cc1ncc(COC(=O)N[C@@H](Cc2ccccc2)C[C@H](O)[C@H](Cc2ccccc2)NC(=O)[C@@H](NC(=O)N(C)Cc2csc(C(C)C)n2)C(C)C)s1` [Example 39, (2S,3S,5S)-2-(N-(N-((N-Methyl-N-((2-isopropyl-4-thiazolyl)methyl)amino)carbonyl)valinyl)amino)-5-(N-((2-methyl-5-thiazolyl)methoxycarbonyl)amino)-1,6-diphenyl-3-hydroxyhexane], the 50% inhibitory concentration (IC50) was in the range of 73 to 77 nM.
Still for that read-out and setting: with `CCc1nc(CN(C)C(=O)N[C@H](C(=O)N[C@@H](Cc2ccccc2)C[C@H](O)[C@H](Cc2ccccc2)NC(=O)OCc2cncs2)C(C)C)co1` [Example 41, (2S,3S,5S)-5-(N-(N-((N-Methyl-N-((2-ethyl-4-oxazolyl)methyl)amino)carbonyl)valinyl)amino)-2-(N-((5-thiazolyl)methoxycarbonyl)amino)-1,6-diphenyl-3-hydroxyhexane] the figure was 15 to 20 nM; with `Cc1nc(CN(C)C(=O)N[C@H](C(=O)N[C@@H](Cc2ccccc2)C[C@H](O)[C@H](Cc2ccccc2)NC(=O)OCc2cncs2)C(C)C)co1` [Example 42, (2S,3S,5S)-5-(N-(N-((N-Methyl-N-((2-methyl-4-oxazolyl)methyl)amino)carbonyl)valinyl)amino)-2-(N-((5-thiazolyl)methoxycarbonyl)amino)-1,6-diphenyl-3-hydroxyhexane], 73 to 80 nM; with `CCC(CC)c1nc(CN(C)C(=O)N[C@H](C(=O)N[C@@H](Cc2ccccc2)C[C@H](O)[C@H](Cc2ccccc2)NC(=O)OCc2cncs2)C(C)C)cs1` [Example 44, (2S,3S,5S)-5-(N-(N-((N-Methyl-N-((2-(3-pentyl)-4-thiazolyl)methyl)amino)carbonyl)valinyl)amino)-2-(N-((5-thiazolyl)methoxycarbonyl)amino)-1,6-diphenyl-3-hydroxyhexane], 120 to 160 nM.
On the same count and under the same terms, as for `CC(C)c1nc(CCOC(=O)N[C@H](C(=O)N[C@@H](Cc2ccccc2)C[C@H](O)[C@H](Cc2ccccc2)NC(=O)OCc2cncs2)C(C)C)cs1` [Example 47, (2S,3S,5S)-5-(N-(N-((2-(2-Isopropyl-4-thiazolyl)ethoxy)carbonyl)valinyl)amino)-2-(N-((5-thiazolyl)methoxycarbonyl)amino)-1,6-diphenyl-3-hydroxyhexane], the figure is 9 to 24 nM; as for `CC(C)[C@H](NC(=O)N(C)Cc1csc(C2CCC2)n1)C(=O)N[C@@H](Cc1ccccc1)C[C@H](O)[C@H](Cc1ccccc1)NC(=O)OCc1cncs1` [Example 52, (2S,3S,5S)-5-(N-(N-((N-Methyl-N-((2-cyclobutyl-4-thiazolyl)methyl)amino)carbonyl)valinyl)amino)-2-(N-((5-thiazolyl)methoxycarbonyl)amino)-1,6-diphenyl-3-hydroxyhexane], 35 to 42 nM.

Staying with this assay, now noted: concentration giving 50% inhibition of the cytopathic effect of HIV; HIV-13B in MT4 cells; read-out: IC50.
Consider `CC(C)c1nc(CN(C)C(=O)N[C@@H](C)C(=O)N[C@@H](Cc2ccccc2)C[C@H](O)[C@H](Cc2ccccc2)NC(=O)OCc2cncs2)cs1` [Example 3, (2S.3S.5S)-5-(N-(N-((N-Methyl-N-((2-isopropyl-4-thiazolyl)methyl)amino)carbonyl)alaninyl)amino)-2-(N-((5-thiazolyl)methoxycarbonyl)amino)-1,6-diphenyl-3-hydroxyhexane], for which the IC50 fell in the range of 41 to 75 nM.
Same read-out and setting: as for `CC(C)c1nc(CN(C)C(=O)N[C@H](C(=O)N[C@@H](Cc2ccccc2)C[C@H](O)[C@H](Cc2ccccc2)NC(=O)OCc2cnco2)C(C)C)cs1` [Example 20], the figure is 11 to 14 nM.
The same measure, in the same setting: as for `CC(C)[C@H](NC(=O)N(C)Cc1csc(C2CC2)n1)C(=O)N[C@@H](Cc1ccccc1)C[C@H](O)[C@H](Cc1ccccc1)NC(=O)OCc1cncs1` [Example 51], the figure is 45 to 49 nM.

Values taken from patent publication US6531610B1 (Abbott Laboratories, priority 1989, dated 2003).
